In patent US10717716B2, “1,3,4-oxadiazole derivative compounds as histone deacetylase 6 inhibitor, and the pharmaceutical composition comprising the same” (Chong Kun Dang Pharmaceutical Corp., priority 2015, dated 2020):

Target: T1, human recombinant HDAC6 (Homo sapiens, UniProt Q9UBN7)
T1 construct: purchased Calbiochem 382180
T1 sequence (Q9UBN7 1-1215): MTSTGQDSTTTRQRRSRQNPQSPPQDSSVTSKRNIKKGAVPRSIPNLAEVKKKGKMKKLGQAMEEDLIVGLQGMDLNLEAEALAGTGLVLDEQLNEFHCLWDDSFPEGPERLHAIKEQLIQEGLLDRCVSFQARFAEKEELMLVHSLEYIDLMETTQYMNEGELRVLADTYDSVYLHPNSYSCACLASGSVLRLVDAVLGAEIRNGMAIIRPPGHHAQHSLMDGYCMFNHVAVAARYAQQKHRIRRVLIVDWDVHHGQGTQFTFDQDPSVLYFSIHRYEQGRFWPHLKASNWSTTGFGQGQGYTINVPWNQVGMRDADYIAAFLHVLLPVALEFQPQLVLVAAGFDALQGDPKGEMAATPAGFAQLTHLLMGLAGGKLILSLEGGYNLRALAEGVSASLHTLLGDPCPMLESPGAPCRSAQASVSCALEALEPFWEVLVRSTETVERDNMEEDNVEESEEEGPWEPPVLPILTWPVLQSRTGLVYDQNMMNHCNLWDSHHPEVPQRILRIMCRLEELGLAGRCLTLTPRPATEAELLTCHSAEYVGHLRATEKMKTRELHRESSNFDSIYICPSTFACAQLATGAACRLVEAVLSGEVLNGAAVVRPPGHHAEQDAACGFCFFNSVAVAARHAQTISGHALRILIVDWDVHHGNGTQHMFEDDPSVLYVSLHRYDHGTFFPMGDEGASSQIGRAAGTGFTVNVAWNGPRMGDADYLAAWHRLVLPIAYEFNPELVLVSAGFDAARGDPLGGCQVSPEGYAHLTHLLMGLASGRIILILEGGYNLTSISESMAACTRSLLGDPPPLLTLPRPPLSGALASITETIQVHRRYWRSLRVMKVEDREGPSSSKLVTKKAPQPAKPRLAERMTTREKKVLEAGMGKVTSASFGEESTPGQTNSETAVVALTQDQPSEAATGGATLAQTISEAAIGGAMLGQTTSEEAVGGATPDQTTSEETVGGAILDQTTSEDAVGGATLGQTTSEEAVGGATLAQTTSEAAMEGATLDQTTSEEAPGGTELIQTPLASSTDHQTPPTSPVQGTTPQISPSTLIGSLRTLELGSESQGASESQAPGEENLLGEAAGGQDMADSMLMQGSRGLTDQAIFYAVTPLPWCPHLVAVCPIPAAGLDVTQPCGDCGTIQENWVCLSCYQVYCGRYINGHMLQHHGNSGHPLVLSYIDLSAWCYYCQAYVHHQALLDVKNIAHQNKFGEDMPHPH
Assay: HDAC6 enzyme activity inhibition assay (HDAC Fluorimetric Drug Discovery Kit)
Type: biochemical
Settings: for HDAC6 selectivity (fold): HDAC6 over HDAC1; for IC50: human recombinant HDAC6, same protocol as HDAC1, read-out: HDAC6
Procedure, shortened: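 Human recombinant HDAC1 or HDAC6 (0.3 μg) reacted with 10 μM Fluor de Lys-SIRT1 substrate and 5-fold compound dilutions for 60 min at 30 °C. Developer II added for 30 min, fluorescence read at Ex 360/Em 460; IC50 calculated from the readings.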

| HDAC6 selectivity (fold) | IC50 | SMILES |
| --- | --- | --- |
| 41 fold | 241 nM | CC(=O)N1[C@H](C)CN(C(=O)N(Cc2ccc(-c3nnc(C(F)(F)F)o3)cc2)c2ccccc2)C[C@@H]1C [Compound 21387, (3R,5S)-4-Acetyl-3,5-dimethyl-N-phenyl-N-(4-(5-(trifluoromethyl)-1,3,4-oxadiazol-2-yl)benzyl)piperazine-1-carboxamide] |
| 22 fold | 448 nM | C[C@@H]1CN(C(=O)N(Cc2ccc(-c3nnc(C(F)(F)F)o3)cc2)c2ccccc2)C[C@H](C)N1Cc1ccccc1 [Compound 21376, (3S,5R)-4-Benzyl-3,5-dimethyl-N-phenyl-N-(4-(5-(trifluoromethyl)-1,3,4-oxadiazol-2-yl)benzyl)piperazine-1-carboxamide] |
| 71 fold | 140 nM | O=C(N1CCOCC1)N(Cc1ccc(-c2nnc(C(F)(F)F)o2)cc1)c1cccc(F)c1 [Compound 21407, N-(3-fluorophenyl)-N-(4-(5-(trifluoromethyl)-1,3,4-oxadiazol-2-yl)benzyl)morpholine-4-carboxamide] |
| 79 fold | 126 nM | O=C(N1CCOCC1)N(Cc1ccc(-c2nnc(C(F)(F)F)o2)cc1)c1cccnc1 [Compound 21427, N-(pyridin-3-yl)-N-(4-(5-(trifluoromethyl)-1,3,4-oxadiazol-2-yl)benzyl)morpholine-4-carboxamide] |
| 204 fold | 49 nM | O=C(N1CCOCC1)N(Cc1ccc(-c2nnc(C(F)F)o2)cc1)c1ccccc1 [Compound 21325, N-(4-(5-(difluoromethyl)-1,3,4-oxadiazol-2-yl)benzyl)-N-phenylmorpholine-4-carboxamide] |
| 53 fold | 188 nM | Cc1ccc(N(Cc2ccc(-c3nnc(C(F)(F)F)o3)cc2)C(=O)N2CCS(=O)(=O)CC2)c(F)c1 [Compound 21434, N-(2-fluoro-4-methylphenyl)-N-(4-(5-(trifluoromethyl)-1,3,4-oxadiazol-2-yl)benzyl)thiomorpholine-4-carboxamide 1,1-dioxide] |
| 517 fold | 19 nM | O=C(N1CCOCC1)N(Cc1ccc(-c2nnc(C(F)F)o2)cn1)c1ccc(F)c(Cl)c1 [Compound 21619, N-(3-chloro-4-fluorophenyl)-N-((5-(5-(difluoromethyl)-1,3,4-oxadiazol-2-yl)pyridin-2-yl)methyl)morpholine-4-carboxamide] |
| 7 fold | 1530 nM | O=C(N1CCS(=O)(=O)CC1)N(Cc1ccc(-c2nnc(C(F)(F)F)o2)cc1)c1ccccc1C(F)(F)F [Compound 21449, N-(4-(5-(trifluoromethyl)-1,3,4-oxadiazol-2-yl)benzyl)-N-(2-(trifluoromethyl)phenyl)thiomorpholine-4-carboxamide 1,1-dioxide] |
| 5 fold | 1990 nM | O=C(NC1CCCCC1)N(Cc1ccc(-c2nnc(C(F)(F)F)o2)cc1)c1ccccc1 [Compound 21342, 3-Cyclohexyl-1-phenyl-1-(4-(5-(trifluoromethyl)-1,3,4-oxadiazol-2-yl)benzyl)urea] |
| 143 fold | 70 nM | CN1CC2(CCN(C(=O)N(Cc3ccc(-c4nnc(C(F)(F)F)o4)cc3)c3ccccc3)CC2)C1 [Compound 21420, 2-Methyl-N-phenyl-N-(4-(5-(trifluoromethyl)-1,3,4-oxadiazol-2-yl)benzyl)-2,7-diazaspiro[3.5]nonane-7-carboxamide] |
| 179 fold | 56 nM | O=C(N1CCS(=O)(=O)CC1)N(Cc1ccc(-c2nnc(C(F)(F)F)o2)cc1F)c1ccccc1 [Compound 21369, N-(2-fluoro-4-(5-(trifluoromethyl)-1,3,4-oxadiazol-2-yl)benzyl)-N-phenylthiomorpholine-4-carboxamide 1,1-dioxide] |

Continued, compound first:

| SMILES | HDAC6 selectivity (fold) | IC50 |
| --- | --- | --- |
| COc1ccccc1N(Cc1ccc(-c2nnc(C(F)(F)F)o2)cc1F)C(=O)N1CCS(=O)(=O)CC1 [Compound 21479, N-(2-fluoro-4-(5-(trifluoromethyl)-1,3,4-oxadiazol-2-yl)benzyl)-N-(2-methoxyphenyl)thiomorpholine-4-carboxamide 1,1-dioxide] | 167 fold | 60 nM |
| CN1CCN(C(=O)N(Cc2ccc(-c3nnc(C(F)F)o3)cc2F)c2ccc(Cl)cc2)CC1 [Compound 21468, N-(4-chlorophenyl)-N-(4-(5-(difluoromethyl)-1,3,4-oxadiazol-2-yl)-2-fluorobenzyl)-4-methylpiperazine-1-carboxamide] | 159 fold | 63 nM |
| O=C(N1CCS(=O)(=O)CC1)N(Cc1ccc(-c2nnc(C(F)F)o2)cc1F)c1ccc(-c2ccncc2)cc1 [Compound 21520, N-(4-(5-(difluoromethyl)-1,3,4-oxadiazol-2-yl)-2-fluorobenzyl)-N-(4-(pyridin-4-yl)phenyl)thiomorpholine-4-carboxamide 1,1-dioxide] | 159 fold | 63 nM |
| O=C(N1CCOCC1)N(Cc1ccc(-c2nnc(C(F)F)o2)cc1F)C12CC3CC(CC(C3)C1)C2 [Compound 21910, N-((3s,5s,7s)-adamantan-1-yl)-N-(4-(5-(difluoromethyl)-1,3,4-oxadiazol-2-yl)-2-fluorobenzyl)morpholine-4-carboxamide] | 21 fold | 470 nM |
| O=C(N1CCN(C2COC2)CC1)N(Cc1ccc(-c2nnc(C(F)F)o2)cn1)c1cccc(Cl)c1 [Compound 21944, N-(3-Chlorophenyl)-N-((5-(5-(difluoromethyl)-1,3,4-oxadiazol-2-yl)pyridin-2-yl)methyl)-4-(oxetan-3-yl)piperazine-1-carboxamide] | 201 fold | 50 nM |
| O=C(N1CCS(=O)(=O)CC1)N(Cc1ccc(-c2nnc(C(F)F)o2)cn1)c1ccc(F)c(Cl)c1 [Compound 21587, N-(3-chloro-4-fluorophenyl)-N-((5-(5-(difluoromethyl)-1,3,4-oxadiazol-2-yl)pyridin-2-yl)methyl)thiomorpholine-4-carboxamide 1,1-dioxide] | 909 fold | 11 nM |
| CCN1CCN(C(=O)N(Cc2ccc(-c3nnc(C(F)F)o3)cn2)c2ccccc2)CC1 [Compound 21624, N-((5-(5-(difluoromethyl)-1,3,4-oxadiazol-2-yl)pyridin-2-yl)methyl)-4-ethyl-N-phenylpiperazine-1-carboxamide] | 347 fold | 29 nM |
| O=C(N1CC2(COC2)C1)N(Cc1ccc(-c2nnc(C(F)F)o2)cc1F)c1ccc(F)c(Cl)c1 [Compound 21586, N-(3-chloro-4-fluorophenyl)-N-(4-(5-(difluoromethyl)-1,3,4-oxadiazol-2-yl)-2-fluorobenzyl)-2-oxa-6-azaspiro[3.3]heptane-6-carboxamide] | 476 fold | 21 nM |
| O=C(N1CCS(=O)(=O)CC1)N(Cc1ccc(-c2nnc(C(F)F)o2)cc1F)c1ccc(CN2CCCCC2)cc1 [Compound 21919, N-(4-(5-(difluoromethyl)-1,3,4-oxadiazol-2-yl)-2-fluorobenzyl)-N-(4-(piperidin-1-ylmethyl)phenyl)thiomorpholine-4-carboxamide 1,1-dioxide] | 28 fold | 357 nM |
